Test results as given in paper PMC10789292 (Journal of Alzheimer's Disease Reports, 2023).

System: cPLA2-IVA expressed in mouse brain
Assay: Peptide binding to brain slices by IHC
Details: for Binding (staining) to healthy NMRI and APP/PS1 mouse brain slices: biotinylated peptide 20 μM in HCN, overnight 4°C, DAB detection

Sequence | Binding (staining) to healthy NMRI and APP/PS1 mouse brain slices | Staining of APP/PS1 versus healthy brain slices (biotinylated peptide 20 μM, 2 years old APP/PS1 mice)
DDFRVWWPNFPR [PLP2] | good staining | 
HVTLRYMHPMVS [PLP25] | good staining | higher staining of APP/PS1 brain slices
YQFGYDYPRSQV [PLP1] | unable to bind the brain tissue | 
